From patent publication US12024512B2, “Cocrystal” (TAKEDA PHARMACEUTICAL COMPANY LIMITED, priority 2016, dated 2024)

Columns and labels:
[1] = Recrystallization experiment: crystal form of precipitate from organic solvent; type: physicochemical; conditions: dissolved at 55° C., cooled to 5° C.
Protocol: (§1) Powder X-ray diffraction measurement was performed using Cu-Kα radiation and measured by horizontal multipurpose X-ray diffraction system Ultima IV manufactured by Rigaku Corporation. Differential scanning calorimetric or thermogravimetric measurement was performed using DSC1/700/903-2 manufactured by Mettler Toledo or TGA/DSC1/LF/629-2 manufactured by Mettler Toledo and measured at temperature rise rate 5° C./min. Infrared spectrum was measured using Fourier transform infrared spectrophotometer Shimadzu IR Prestige-21 manufactured by Shimadzu Corporation and mounting Dura Sample IR II manufactured by Smiths Detection and by a total reflection method absorption measurement method at resolution 4 cm^−1. Raman spectroscopy was measured using RXN2 manufactured by Kaiser Optical Systems and a laser light source at excitation wavelength 1064 nm. Single crystal X-ray diffraction was measured using Cu-Kα radiation and curved imaging plate single crystal automatic X-ray structure analyzer R-AXIS RAPID II manufactured by Rigaku Corporation. Initial phase was determined by the direct method and the structure was refined by SHELXL-97. […] Intrinsic dissolution rate measurement was evaluated using a compression-molded disc of a crystal powder alone and in 20 mmoL/L sodium phosphate buffer (pH 6.8) containing 0.2% (w/v) sodium lauryl sulfate and by a rotating disc method (rotating speed: 100 rpm). Dissolution test was performed using a powder obtained by physically mixing a crystal powder and lactose in the same weight as the crystal powder and evaluated in Fasted State Simulated Intestinal Fluid (FaSSIF) at 37° C. by a rotating paddle method (paddle rotating speed: 50 rpm). The drug concentration of a solution was determined by liquid chromatography using Alliance HPLC system e2695 and detector 2789 manufactured by Waters (separation column: YMCPackPro C18 4.6 mm[…]×150 mm, temperature: 40° C., mobile phase: 20 mmol/L sodium phosphate buffer (pH 6.8)/acetonitrile=60/40 (v/v), flow rate: 1 mL/min, ultraviolet absorption detection wavelength: 240 nm). As slurry experiment, a test solvent was added to a crystal powder, the mixture was stirred at about 25° C. for 24 hr in suspension, the obtained residue was collected by filtration, and the crystal form was confirmed by powder X-ray diffraction measurement or Raman spectroscopy. In the recrystallization experiment, crystals were dissolved in ethanol, acetone, 2-propanol, tetrahydrofuran, methyl ethyl ketone, ethyl acetate, isopropyl acetate, anisole or isobutyl acetate at 55° C., filtered through a filter, allowed to cool to 5° C. or allowed to cool to 5° C. after adding n-heptane to the solution, and the crystal form of the obtained precipitate was confirmed by powder X-ray diffraction measurement or Raman spectroscopy.

[2] = Slurry experiment: crystal form of residue after stirring in test solvent; type: physicochemical; conditions: about 25° C., 24 hr
Protocol: as §1

[3] = 2-propanol/n-heptane, n-heptane added
[4] = acetone/n-heptane, n-heptane added
[5] = anisole/n-heptane, n-heptane added
[6] = ethanol/n-heptane, n-heptane added
[7] = ethyl acetate/n-heptane, n-heptane added
[8] = isobutyl acetate/n-heptane, n-heptane added
[9] = isopropyl acetate/n-heptane, n-heptane added
[10] = methyl ethyl ketone/n-heptane, n-heptane added
[11] = tetrahydrofuran/n-heptane, n-heptane added

Structure (SMILES)	Crystal form of precipitate obtained by recrystallization experiment ([1]; 2-propanol)	Crystal form of precipitate obtained by recrystallization experiment [1, 3]	Crystal form of precipitate obtained by recrystallization experiment ([1]; acetone)	Crystal form of precipitate obtained by recrystallization experiment [1, 4]	Crystal form of precipitate obtained by recrystallization experiment ([1]; anisole)	Crystal form of precipitate obtained by recrystallization experiment [1, 5]	Crystal form of precipitate obtained by recrystallization experiment ([1]; ethanol)	Crystal form of precipitate obtained by recrystallization experiment [1, 6]	Crystal form of precipitate obtained by recrystallization experiment ([1]; ethyl acetate)	Crystal form of precipitate obtained by recrystallization experiment [1, 7]	Crystal form of precipitate obtained by recrystallization experiment ([1]; isobutyl acetate)	Crystal form of precipitate obtained by recrystallization experiment [1, 8]	Crystal form of precipitate obtained by recrystallization experiment ([1]; isopropyl acetate)	Crystal form of precipitate obtained by recrystallization experiment [1, 9]	Crystal form of precipitate obtained by recrystallization experiment ([1]; methyl ethyl ketone)	Crystal form of precipitate obtained by recrystallization experiment [1, 10]	Crystal form of precipitate obtained by recrystallization experiment ([1]; tetrahydrofuran)	Crystal form of precipitate obtained by recrystallization experiment [1, 11]	Crystal form of residue after slurry experiment ([2]; 2-propanol)	Crystal form of residue after slurry experiment ([2]; acetone)	further results
CCc1cc2c(c(OCC(F)(F)F)c(C(=O)NC3CCN(C(=O)CO)CC3)n2C)c(=O)n1CC(=O)c1ccccc1.O=C(O)C[C@H](O)C(=O)O [cocrystal with L-malic acid, cocrystal of 6-ethyl-N-[1-(hydroxyacetyl)piperidin-4-yl]-1-methyl-4-oxo-5-(2-oxo-2-phenylethyl)-3-(2,2,2-trifluoroethoxy)-4,5-dihydro-1H-pyrrolo[3,2-c]pyridine-2-carboxamide and L-malic acid]	no precipitate	cocrystal *	free form (solvate)	free form (solvate)	no precipitate	free form (solvate)	free form (solvate)	free form (solvate)	free form (solvate)	free form (solvate)	cocrystal * + free form (solvate)	free form (solvate)	free form (solvate)	cocrystal * + free form (solvate)	free form (solvate)	cocrystal + free form (solvate)	free form (solvate)	cocrystal + free form (solvate)	cocrystal *	cocrystal *	Crystal form of residue after slurry experiment ([2]; anisole): free form (solvate); Crystal form of residue after slurry experiment ([2]; distilled water): cocrystal* + free form (solvate); Crystal form of residue after slurry experiment ([2]; ethanol): cocrystal *; Crystal form of residue after slurry experiment ([2]; ethyl acetate): cocrystal* + free form (solvate); Crystal form of residue after slurry experiment ([2]; methyl ethyl ketone): cocrystal* + free form (solvate); Crystal form of residue after slurry experiment ([2]; tetrahydrofuran): free form (solvate)
CCc1cc2c(c(OCC(F)(F)F)c(C(=O)NC3CCN(C(=O)CO)CC3)n2C)c(=O)n1CC(=O)c1ccccc1.O=C(O)C(O)C(O)C(=O)O [cocrystal with L-tartaric acid, cocrystal of 6-ethyl-N-[1-(hydroxyacetyl)piperidin-4-yl]-1-methyl-4-oxo-5-(2-oxo-2-phenylethyl)-3-(2,2,2-trifluoroethoxy)-4,5-dihydro-1H-pyrrolo[3,2-c]pyridine-2-carboxamide and L-tartaric acid]	cocrystal *	cocrystal *	free form (solvate)	cocrystal * + free form (solvate)	no precipitate	free form (solvate)	free form (solvate)	free form (solvate)	free form (solvate)	cocrystal * + free form (solvate)	cocrystal *	cocrystal *	free form (solvate)	cocrystal *	free form (solvate)	cocrystal *	free form (solvate)	cocrystal *	cocrystal* + free form (solvate)	cocrystal *	Crystal form of residue after slurry experiment ([2]; anisole): cocrystal* + free form (solvate); Crystal form of residue after slurry experiment ([2]; distilled water): cocrystal* + free form (solvate); Crystal form of residue after slurry experiment ([2]; ethanol): cocrystal * + free form (solvate); Crystal form of residue after slurry experiment ([2]; ethyl acetate): cocrystal* + free form (solvate); Crystal form of residue after slurry experiment ([2]; methyl ethyl ketone): cocrystal* + free form (solvate); Crystal form of residue after slurry experiment ([2]; tetrahydrofuran): cocrystal* + free form (solvate)
